Reference: PubChem BioAssay AID1963449 (Molecular Pharmacology Branch, DTP, NCI, 2024)
Where “and” joins values, the source holds several entries; their conditions need not be identical. Identical values can stand only once.

Test system: 596521-263-R-J1-PDC complex spheroid growth
Test: Anticancer human tumor 596521-263-R-J1-PDC patient-derived soft tissue sarcoma cell line growth inhibition [Asc]
Conditions: for viability, T/C: stronger effect = lower value
In short: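 Complex solid-tumor spheroids incorporating human endothelial and mesenchymal stem cells received single agents or combinations over half-log dilution ranges anchored to clinical Cmax.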
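Further: spheroids exposed to compounds for 7 days.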

CNC(C)C(=O)NC1CN(S(=O)(=O)c2cccc(S(=O)(=O)N3CCC4CCC(C(=O)NC(c5ccccc5)c5ccccc5)N4C(=O)C(NC(=O)C(C)NC)C3)c2)CCC2CCC(C(=O)NC(c3ccccc3)c3ccccc3)N2C1=O (stereo not drawn)
viability, T/C (compound 0.0316 µM): 89.6% [middle of 6 runs]
viability, T/C (compound 0.1 µM): 87.5% [middle of 6 runs]
viability, T/C (compound 1 µM): 77.4% [middle of 6 runs]
IC50 (curve of compound): > 1000 nM

Cc1nc(N2CCC3(CC2)COC(C)C3N)c(CO)nc1Sc1ccnc(N)c1Cl (stereo not drawn) + CNC(C)C(=O)NC1CN(S(=O)(=O)c2cccc(S(=O)(=O)N3CCC4CCC(C(=O)NC(c5ccccc5)c5ccccc5)N4C(=O)C(NC(=O)C(C)NC)C3)c2)CCC2CCC(C(=O)NC(c3ccccc3)c3ccccc3)N2C1=O
IC50 (curve of first compound, second compound 0.00316 µM): > 3000 nM
IC50 (curve of first compound, second compound 0.01 µM): > 3000 nM
IC50 (curve of first compound, second compound 0.0316 µM): > 3000 nM
IC50 (curve of first compound, second compound 0.1 µM): 2250 nM
IC50 (curve of first compound, second compound 0.316 µM): > 3000 nM
IC50 (curve of first compound, second compound 1 µM): 1620 nM
viability, T/C (second compound 0.00316 µM, first compound 0.00949 µM): 101%
viability, T/C (second compound 0.00316 µM, first compound 0.03 µM): 93.3%
viability, T/C (second compound 0.00316 µM, first compound 0.0949 µM): 98.7%
viability, T/C (second compound 0.00316 µM, first compound 0.3 µM): 97.3%
viability, T/C (second compound 0.00316 µM, first compound 0.949 µM): 75.8%
viability, T/C (second compound 0.00316 µM, first compound 3 µM): 57.6%
viability, T/C (second compound 0.01 µM, first compound 0.00949 µM): 96.9%
viability, T/C (second compound 0.01 µM, first compound 0.03 µM): 87.4%
viability, T/C (second compound 0.01 µM, first compound 0.0949 µM): 89.8%
viability, T/C (second compound 0.01 µM, first compound 0.3 µM): 80.6%
viability, T/C (second compound 0.01 µM, first compound 0.949 µM): 73.1%
viability, T/C (second compound 0.01 µM, first compound 3 µM): 61%
viability, T/C (second compound 0.0316 µM, first compound 0.00949 µM): 102%
viability, T/C (second compound 0.0316 µM, first compound 0.03 µM): 82.2%
viability, T/C (second compound 0.0316 µM, first compound 0.0949 µM): 94.2%
viability, T/C (second compound 0.0316 µM, first compound 0.3 µM): 77%
viability, T/C (second compound 0.0316 µM, first compound 0.949 µM): 71.5%
viability, T/C (second compound 0.0316 µM, first compound 3 µM): 50.7%
viability, T/C (second compound 0.1 µM, first compound 0.00949 µM): 90.5%
viability, T/C (second compound 0.1 µM, first compound 0.03 µM): 82.2%
viability, T/C (second compound 0.1 µM, first compound 0.0949 µM): 77.1%
viability, T/C (second compound 0.1 µM, first compound 0.3 µM): 75.5%
viability, T/C (second compound 0.1 µM, first compound 0.949 µM): 63.1%
viability, T/C (second compound 0.1 µM, first compound 3 µM): 45.3%
viability, T/C (second compound 0.316 µM, first compound 0.00949 µM): 79.2%
viability, T/C (second compound 0.316 µM, first compound 0.03 µM): 81.5%
viability, T/C (second compound 0.316 µM, first compound 0.0949 µM): 78.9%
viability, T/C (second compound 0.316 µM, first compound 0.3 µM): 69.8%
viability, T/C (second compound 0.316 µM, first compound 0.949 µM): 67.7%
viability, T/C (second compound 0.316 µM, first compound 3 µM): 49.8%
viability, T/C (second compound 1 µM, first compound 0.00949 µM): 80.3%
viability, T/C (second compound 1 µM, first compound 0.03 µM): 71.2%
viability, T/C (second compound 1 µM, first compound 0.0949 µM): 72.4%
viability, T/C (second compound 1 µM, first compound 0.3 µM): 65.7%
viability, T/C (second compound 1 µM, first compound 0.949 µM): 58.5%
viability, T/C (second compound 1 µM, first compound 3 µM): 41.4%

COc1c(OCCCN2CCOCC2)ccc2c3n(c(=NC(=O)c4cnc(N)nc4)nc12)CCN3
viability, T/C (compound 0.00316 µM): 98.3% and 95.9%
viability, T/C (compound 0.01 µM): 88% and 87.8%
viability, T/C (compound 0.0316 µM): 71.1% and 82.2%
viability, T/C (compound 0.1 µM): 68% and 61.7%
viability, T/C (compound 0.316 µM): 44.1% and 40%
viability, T/C (compound 1 µM): 31.9% and 28.1%
IC50 (curve of compound): 254 nM and 188 nM
